Consider 1 compound from patent US20210000814A1, “RIMEGEPANT FOR CGRP RELATED DISORDERS” (Biohaven Pharmaceutical Holding Company Ltd., priority 2018, published 2021).

Each structure is given as a SMILES string.

In this assay the test system is subjects with Acute Migraines. The assay is described as follows: BHV3000-303 Phase 3 trial, rimegepant ODT, acute treatment of migraine: efficacy. The note with it: Study 303; single dose. It is filed as in vivo, human. The procedure:
Clinical Trial—BHV3000-303: Phase 3: Double-Blind, Randomized, Placebo-Controlled, Safety and Efficacy Trial of BHV-3000 (Rimegepant) Orally Discintegrating Tablet (ODT) for the Acute Treatment of Migraine (ClinicalTrials.gov Identifier: NCT03461757) • A phase 3 clinical study was conducted with 1812 participants, as follows. The purpose of this study is to compare the efficacy of BHV-3000 (rimegepant ODT) versus placebo in subjects with Acute Migraines. […] Pain freedom of rimegepant compared with placebo in the acute treatment of migraine will be measured using the number of evaluable subjects that report no pain at 2 hours post-dose. [Time Frame: Two hours post dose] will be measured on a 4 point Likert scale (0=none, 1=mild, 2=moderate, 3=severe) 2. Freedom from the most bothersome symptom (MBS) of rimegepant compared with placebo will be measured using the number of evaluable subjects that report the absence of their MBS at 2 hours post-dose. […] The MBS (nausea, phonophobia or photophobia) will measured using a binary scale (0=absent, 1=present). […] To measure rimegepant compared to placebo on the probability of requiring rescue medication will be assessed using the number of subjects that take rescue medication within […] administration of study medication (BHV3000 or placebo). […]

For `N[C@@H]1c2cccnc2[C@H](OC(=O)N2CCC(n3c(=O)[nH]c4ncccc43)CC2)CC[C@H]1c1cccc(F)c1F` [Rimegepant, [(55,65,9R)-5-amino-6-(2,3-difluorophenyl)-6,7,8,9-tetrahydro-5H-cyclohepta[b]pyridin-9-yl]4-(2-oxo-3H-imidazo[4,5-b]pyridin-1-yl)piperidine-1-carboxylate], the “clinical benefit through 48 hours on pain relief, pain freedom, MBS, functional disability versus placebo” value is listed as “Lasting clinical benefit”.
